Assay results from article PMC4579064 (Toxicology and applied pharmacology, 2015).

What was measured:
brain ChE = brain ChE activity in parathion-treated rats; assay type: in vivo, rat
[1] = assay type: in vivo, rat; conditions: after parathion 8 mg/kg oral; 60 min
rat = conditions: ref Gaines, 1960; cited from earlier work
female Long-Evans rats = conditions: out of 5 rats dosed with parathion 8 mg/kg oral; 60 min
[2] = substrate: CC1=CC(=O)c2ccccc2C1=O; assay: CPR-mediated redox cycling, hydroxyl radical formation; assay type: biochemical, human; conditions: other: menadione; Fe/EDTA, terephthalate; pH 7.8; 37.0 °C
[3] = substrate: CC1=CC(=O)c2ccccc2C1=O; assay: CPR-mediated redox cycling, H2O2 formation; assay type: biochemical, human; conditions: other: menadione as redox cycling substrate of CPR; Amplex Red; pH 7.8; 37.0 °C
[4] = parathion 8 mg/kg oral gavage alone, 60 min

Molecule: CC1(S(=O)(=O)[O-])CC(=O)c2ccccc2C1=O.[Na+] (centres unmarked) [menadione bisulfite]
- parathion-induced inhibition of brain cholinesterase activity (brain ChE; menadione bisulfite 40 mg/kg, ip): reduced

Molecule: CCOP(=O)(OCC)Oc1ccc([N+](=O)[O-])cc1 [paraoxon, diethyl 4-nitrophenyl phosphate]
- paraoxon levels in serum, liver and brain [1]: could not be detected

Molecule: CCOP(=S)(OCC)Oc1ccc([N+](=O)[O-])cc1 [parathion, diethyl 4-nitrophenyl phosphorothionate]
- rat oral LD50 (rat): 2 to 13 mg/kg
- forebrain ChE activity inhibited (brain ChE; [4]): 95%
- hindbrain ChE activity inhibited (brain ChE; [4]): 87%
- rats that died before the end of the observation period (female Long-Evans rats): 1

B1: recombinant human CPR (Homo sapiens) (protein)
chain: MGDSHVDTSSTVSEAVAEEVSLFSMTDMILFSLIVGLLTYWFLFRKKKEEVPEFTKIQTLTSSVRESSFVEKMKKTGRNIIVFYGSQTGTAEEFANRLSKDAHRYGMRGMSADPEEYDLADLSSLPEIDNALVVFCMATYGEGDPTDNAQDFYDWLQETDVDLSGVKFAVFGLGNKTYEHFNAMGKYVDKRLEQLGAQRIFELGLGDDDGNLEEDFITWREQFWPAVCEHFGVEATGEESSIRQYELVVHTDIDAAKVYMGEMGRLKSYENQKPPFDAKNPFLAAVTTNRKLNQGTERHLMHLELDISDSKIRYESGDHVAVYPANDSALVNQLGKILGADLDVVMSLNNLDEESNKKHPFPCPTSYRTALTYYLDITNPPRTNVLYELAQYASEPSEQELLRKMASSSGEGKELYLSWVVEARRHILAILQDCPSLRPPIDHLCELLPRLQARYYSIASSSKVHPNSVHICAVVVEYETKAGRINKGVATNWLRAKEPAGENGGRALVPMFVRKSQFRLPFKATTPVIMVGPGTGVAPFIGFIQERAWLRQQGKEVGETLLYYGCRRSDEDYLYREELAQFHRDGALTQLNVAFSREQSHKVYVQHLLKQDREHLWKLIEGGAHIYVCGDARNMARDVQNTFYDIVAELGAMEHAQAVDYIKKLMTKGRYSLDVWS
- Km [2]: 1.7 µM
- Km [3]: 4.1 µM
